“Also recorded” adds a separate entry of the source. Where two headings read alike, the source gives them in different places. One block for each compound: values may come before it.
Tests used:
[1] = tested on: L6 myotubes; assay: [3H]-2-deoxy-D-glucose (dGlc) uptake assay in L6 myotubes; format: cell-based; conditions: for rate of glucose uptake compared to vehicle (DMSO) treated control / activity at 100 µM: 100 μM; for rate of glucose uptake compared to vehicle (DMSO) treated control: basal rate = 100%; for activity at 100 µM: Mean ± SD (n = 3), read-out: Effect on glucose uptake [100 μM] in L6 myotubes (%); for maximal effective concentration, glucose uptake: dose response, 5 h (3) or 12 h (4, 15)
Procedure: The effect of the various derivatives on the rate of glucose uptake in L6 myotubes was investigated. […] The abundance of GLUT1 and GLUT4 in the plasma membranes of L6 myotubes was determined in cells expressing GLUT-1myc or GLUT-4myc, as described before. […] In addition, the effect of compounds on the glucose—stimulated insulin secretion (GSIS) was investigated.
L6 myotubes were maintained as described in [21]. All experiments were conducted on fully differentiated myotubes.
The rate of [^3H]dGlc uptake in myotubes, in the absence or presence of insulin, was determined as described in [21]. […] […] The cultures were then rinsed 3 times with PBS at room temperature and incubated with PBS, pH 7.4, containing 0.1 mM dGlc and 1.0 μCi/ml [^3H]dGlc for 5 minutes at room temperature. At the end of the assay, the myotubes were lysed in 0.1% (w/v) SDS in water and taken for liquid scintillation.

[2] = tested on: AMPK; assay: Thr172 phosphorylation of AMPK in L6 myotubes, Western blot of whole cell lysates; format: cell-based; conditions: for Thr172 phosphorylation in AMPK / AMPK activation (result in words): L6 myotubes
Procedure: The effect of the various derivatives on the rate of glucose uptake in L6 myotubes was investigated. […] The abundance of GLUT1 and GLUT4 in the plasma membranes of L6 myotubes was determined in cells expressing GLUT-1myc or GLUT-4myc, as described before. […] In addition, the effect of compounds on the glucose—stimulated insulin secretion (GSIS) was investigated. Whole cell lysates were prepared as previously described with some minor modifications: the lysis buffer contained 50 mM Tris-HCl, pH 7.5, 1 mM EDTA, 1 mM EGTA, 1 mM Na3VO4, 150 mM NaCl, 50 mM NaF, 10 mM sodium-glycerophosphate, 5 mM sodium pyrophosphate, and 1 mM PMSF, supplemented with 0.1% (v/v) NP-40, 0.1% (v/v) 2-β-mercaptoethanol, and protease inhibitor cocktail (1:100 dilution). The cells were washed by ice-cold PBS, and 1 ml of lysis buffer was then added and incubated at 4° C. for 40 minutes. The resulting cell lysates were centrifuged at 8,700 g×30 minutes at 4° C. and the resulting supernatant fractions were separated and kept at −20° C. until used. Protein content in the supernatant was determined according to Bradford, using a BSA standard dissolved in the same buffer. […] Samples for Western blot analyses of GLUT1 and GLUT4 were prepared as described in [22]. The proteins were separated on 10% SDS-PAGE and Western blot analyses performed using antibodies according to our previously established protocols.

[3] = tested on: GLUT1; assay: Total GLUT1 content in whole cell lysates of L6 myotubes, Western blot; format: cell-based
Procedure: (§1) Whole cell lysates were prepared as previously described with some minor modifications: the lysis buffer contained 50 mM Tris-HCl, pH 7.5, 1 mM EDTA, 1 mM EGTA, 1 mM Na3VO4, 150 mM NaCl, 50 mM NaF, 10 mM sodium-glycerophosphate, 5 mM sodium pyrophosphate, and 1 mM PMSF, supplemented with 0.1% (v/v) NP-40, 0.1% (v/v) 2-β-mercaptoethanol, and protease inhibitor cocktail (1:100 dilution). The cells were washed by ice-cold PBS, and 1 ml of lysis buffer was then added and incubated at 4° C. for 40 minutes. The resulting cell lysates were centrifuged at 8,700 g×30 minutes at 4° C. and the resulting supernatant fractions were separated and kept at −20° C. until used. Protein content in the supernatant was determined according to Bradford, using a BSA standard dissolved in the same buffer. Aliquots (5-60 μg of protein) were mixed with the sample buffer [62.5 mM Tris-HCl, pH 6.8, 2% (w/v) SDS, 10% (v/v) glycerol, 50 mM DTT, and 0.01% (w/v) bromophenol blue], heated at 95° C. for 5 minutes. Samples for Western blot analyses of GLUT1 and GLUT4 were prepared as described in [22]. The proteins were separated on 10% SDS-PAGE and Western blot analyses performed using antibodies according to our previously established protocols.

[4] = tested on: GLUT4myc; assay: Colorimetric determination of surface GLUT4myc in L6 myotubes; format: cell-based
Procedure: The colorimetric detection of surface GLUT4myc or GLUT1myc in L6 myotubes was performed as described in [7]. Briefly, cultured myotubes were incubated with rabbit anti-C-Myc antibody (1:200 dilution), washed and fixed with 3% formaldehyde, and further interacted with goat HRP-conjugated anti-rabbit IgG (1:2000 dilution). Following the washes, a solution of OPD was added, and the culture plates were taken for absorbance measurement at 492 nM to estimate the relative abundance of GLUT1myc or GLUT4myc on the plasma membrane of the myotubes. The GLUT1myc and GLUT4myc L6 cell cultures were the courtesy of Dr. A. Klip, Hospital for Sick Children (Toronto, ON, Canada).
The capacity of compound 34 to increase the rate of glucose uptake by increasing GLUT4 content in the plasma membrane of myotubes was tested. […] The cells expressing GLUT1myc or GLUT4myc were treated with 25 μM of 34 or DMSO as described above. At the end of the incubation, the cultures were taken for immunodetection of surface GLUT1myc (open bars) or GLUT4myc (black bars), as described herein above.

[5] = tested on: GLUT4; assay: Total GLUT4 content in whole cell lysates of L6 myotubes, Western blot; format: cell-based
Procedure: as §1

[6] = tested on: INS-1E cells; assay: Glucose-stimulated insulin secretion (GSIS) from INS-1E cells, insulin RIA; format: cell-based
Procedure: INS-1E cells (passages 70-90) were grown and maintained as described in Merglen A et al. Endocrinology 2004, 145:667-678.
To investigate the glucose—stimulated insulin secretion (GSIS) and insulin radioimmunoassay-confluent cultures of INS-1E cells were pre-incubated for 30 min in KRBH-BSA buffer containing 3.3 mM glucose. This was followed by 1-h incubation at 3.3 and an additional 1-h at 16.7 mM glucose, as described (1). Aliquots from the incubation buffers were collected, cleared by centrifugation and frozen until used for insulin RIA. Total insulin content in β-cells was similarly measured in aliquots of cell extracts (1). RIA kits rat insulin (Linco Research, St. Charles, Mo.) was used according to manufacturers' protocols.

Compound: CCCNC(=O)CSc1nc2ccc(OCC)cc2s1 [Compound 33, 2-((6-ethoxybenzothiazol-2-yl)thio)-N-propylacetamide]
- rate of glucose uptake in L6 myotubes (result in words) [1]: increase; also recorded: markedly augmented
- increase of rate of glucose uptake ([1]; 100 μM within 5 hours of incubation): 2 fold
- time to significant Thr172 phosphorylation of AMPK ([2]; incubation time): 5 h

Compound: CCOc1ccc2nc(S(N)(=O)=O)sc2c1 [Compound 30, 6-ethoxybenzothiazole-2-sulfonamide]
- rate of glucose uptake in L6 myotubes (result in words) [1]: inactive

Compound: Oc1ccc2nc(S)sc2c1 [Compound 19, 2-mercaptobenzothiazol-6-ol]
- rate of glucose uptake in L6 myotubes (result in words) [1]: did not stimulate

Compound: Oc1nc2ccc(Br)cc2s1 [Compound 15, 6-bromo-2-benzothiazolinone]
- persistence of stimulatory effect on glucose uptake [1]: 24 h
- rate of glucose uptake in L6 myotubes (result in words) [1]: increase
- rate of glucose uptake compared to vehicle (DMSO) treated control [1]: 132.9%±13.8%
- activity at 100 µM ([1]; Rattus norvegicus, L6, Table 2): 133 ± 13.8%
- maximal effective concentration, glucose uptake [1]: 100 µM
- Thr172 phosphorylation in AMPK / AMPK activation (result in words) [2]: significantly induced

Compound: c1cnc2[nH]nnc2c1 [Compound 16, 1H-1,2,3-triazolo[4,5]pyridine]
- activity at 100 µM ([1]; Rattus norvegicus, L6, Table 2): 86.7 ± 17.9%

Compound: Cn1cnnc1S [Compound 7, 3-mercapto-4-methyl-4H-1,2,4-triazole]
- activity at 100 µM ([1]; Rattus norvegicus, L6, Table 1): 107 ± 7.5%

Compound: Cn1ccnc1S [Compound 9, 2-mercapto-1-methylimidazole]
- activity at 100 µM ([1]; Rattus norvegicus, L6, Table 1): 93 ± 9.5%

- melting point: 105 to 110 °C
Compound: CCC(CC)CSc1nc2ccc(O)cc2s1 [Compound 21, 2-(2-ethylbutylthio)benzothiazol-6-ol]

Compound: Sc1ncccn1 [Compound 8, 2-mercaptopyrimidine]
- activity at 100 µM ([1]; Rattus norvegicus, L6, Table 1): 100 ± 4.9%

Compound: insulin: Human insulin (Actrapid) purchased from Novo Nordisk [reference compound]
- total content of GLUT1 in myotubes [3]: Neither compound altered
- increase of rate of glucose uptake ([1]; insulin 100 nM, last 20 minutes of incubation): 45%±13%
- time of effect on GLUT4myc translocation to the plasma membrane [4]: 30 min
- abundance of GLUT4myc in the plasma membrane ([4]; 25 μM of 34, insulin): increased
- total content of GLUT4 in myotubes [5]: Neither compound altered

Compound: Nc1ncc([N+](=O)[O-])s1 [Compound 12, 2-amino-5-nitrothiazole]
- activity at 100 µM ([1]; Rattus norvegicus, L6, Table 1): 95.1 ± 8.9%

Compound: Cc1nnc(N)s1 [Compound 6, 2-amino-5-methyl-1,3,4-thiadiazole]
- activity at 100 µM ([1]; Rattus norvegicus, L6, Table 1): 101 ± 5.5%

Compound: CCOc1ccc2nc(S)sc2c1 [Compound 4, 6-ethoxybenzo[d]thiazole-2-thiol]
- persistence of stimulatory effect on glucose uptake [1]: 24 h
- rate of glucose uptake in L6 myotubes (result in words) [1]: increase
- rate of glucose uptake compared to vehicle (DMSO) treated control [1]: 172.4%±12.4%
- activity at 100 µM ([1]; Rattus norvegicus, L6, Table 2): 172 ± 12.4%
- maximal effective concentration, glucose uptake [1]: 100 µM
- Thr172 phosphorylation in AMPK / AMPK activation (result in words) [2]: significantly induced

Compound: c1ccc2[nH]c(SSc3nc4ccccc4[nH]3)nc2c1 [Compound 32, 1,2-di(1H-benziimidazol-2-yl)disulfane]
- rate of glucose uptake in L6 myotubes (result in words) [1]: no stimulatory effect

- melting point: 175 to 178 °C
Compound: CCOc1ccc2nc(SCCC(=O)O)sc2c1 [Compound 25, 3-(6-ethoxybenzothiazol-2-ylthio)propanoic acid]
- rate of glucose uptake in L6 myotubes (result in words) [1]: increase
- increase of glucose uptake in comparison with vehicle-treated cells ([1]; 50 μM, within 5 hours of incubation): 1.8 fold
- Thr172 phosphorylation in AMPK / AMPK activation (result in words) [2]: activated AMPK
- time of maximal (peak) Thr172 phosphorylation in AMPK ([2]; incubation time): 60 min

Compound: CCOc1ccc2nc(N)sc2c1 [Compound 14, 6-ethoxybenzothiazol-2-amine]
- activity at 100 µM ([1]; Rattus norvegicus, L6, Table 2): 111 ± 14.2%

Compound: SC1=NCCS1 [Compound 11, 2-mercapto-2-thiazoline]
- activity at 100 µM ([1]; Rattus norvegicus, L6, Table 1): 106 ± 6.8%

Compound: NC1=NC(=O)/C(=C\C=C\c2ccc([N+](=O)[O-])o2)S1 [Compound 2, (E)-2-Amino-5-((E)-3-(5-nitrofuran-2-yl)allylidene)thiazol-4(5H)-one]
- rate of glucose uptake in L6 myotubes (result in words) [1]: slightly increased
- concentrations at which effects on glucose uptake and Thr172 phosphorylation were observed ([1]; L6 myotubes, data not shown): above 500 μM
- Thr172 phosphorylation in AMPK / AMPK activation (result in words) [2]: marginally induced

- melting point: 67 to 70 °C
Compound: CCCSc1nc2ccc(O)cc2s1 [Compound 20, 2-(propylthio)benzothiazol-6-ol]
- glucose-stimulated insulin secretion from INS-1E cells (result in words) [6]: augments
- glucose stimulated insulin secretion in INS-1E ([6]; 10 μM, indicated time periods): increased
- glucose-stimulated insulin secretion ([6]; 25 μM): increased
- rate of glucose uptake in L6 myotubes (result in words) [1]: increase
- rate of glucose uptake in L6 myotubes (result in words) ([1]; listed as EMM-45): increases; also recorded: induced an increase; also recorded: induces stimulation

- melting point: 80 to 85 °C
Compound: CCCCSc1nc2ccc(O)cc2s1 [Compound 23, 2-(butylthio)benzothiazol-6-ol]

- melting point: 185 to 190 °C
Compound: CCOc1ccc2nc(SSc3nc4ccc(OCC)cc4s3)sc2c1 [Compound 31, 1,2-bis(6-ethoxybenzothiazol-2-yl)disulfane]
- glucose-stimulated insulin secretion from INS-1E cells (result in words) [6]: increases
- rate of glucose uptake in L6 myotubes (result in words) [1]: increase; also recorded: substantially increased
- Emax ([1]; Rattus norvegicus, L6, 150 μM within 5 hours of incubation, read-out: maximal effect on rate of glucose uptake, compared with a non-treated control): 189 ± 21.8%
- rate of glucose uptake in L6 myotubes (result in words) ([1]; listed as EMM-5): increases
- persistence of Thr172 phosphorylation of AMPK ([2]; incubation time): up to 5 hours
- time to induction of Thr172 phosphorylation in AMPK ([2]; incubation time): ≤ 40 min

Compound: c1ccc2scnc2c1 [Compound 13, benzothiazole]
- activity at 100 µM ([1]; Rattus norvegicus, L6, Table 2): 117 ± 9.7%

Compound: Nc1nncs1 [Compound 5, 2-amino-1,3,4-thiadiazole]
- activity at 100 µM ([1]; Rattus norvegicus, L6, Table 1): 97.4 ± 2.9%

Compound: c1ccc2[nH]nnc2c1 [Compound 17, 1H-benzotriazole]
- activity at 100 µM ([1]; Rattus norvegicus, L6, Table 2): 87.5 ± 11.4%

Compound: Nc1nccs1 [Compound 10, 2-aminothiazole]
- activity at 100 µM ([1]; Rattus norvegicus, L6, Table 1): 95.7 ± 5.1%
